Measured values taken from ChEMBL document CHEMBL3885861, “Open TG-GATES”.

Organism: Rattus norvegicus
Experiment: Open TG-GATES - Regimen: Daily Repeat
Format: toxicity, organism-based, Sprague-Dawley
Design: regimen Daily Repeat, gender Male, age 6 weeks
Conditions: in vivo, po, 0 mg/kg, route gavage, dose level Control; for APTT / Bas / Eos / Fbg / Hb / Ht / Lym / MCH / MCHC / MCV / Mono / Neu / PT / Plat / RBC / Ret / WBC: tissue Blood; for KIDNEY_L / KIDNEY_R / KIDNEY_TOTAL: tissue Kidney; for LIVER: tissue Liver; for A/G / ALP / ALT / AST / BUN / CRE / Ca / Cl / DBIL / GLC / IP / K / LDH / Na / PL / RALB / TBIL / TC / TG / TP / gamma-GTP: tissue Plasma

Work on `CC(C)(S)[C@@H](N)C(=O)O` [PENICILLAMINE] yielded a TERMINAL_BW (72 h, time 3 day) of 235.9 g, an APTT (72 h, time 3 day) of 15.9 s and a Bas (72 h, time 3 day) of 0.2%. It also gave an Eos (72 h, time 3 day) of 0.6%, a Fbg (72 h, time 3 day) of 305 mg/dL and a Hb (72 h, time 3 day) of 13.7 g/dL. The Ht (72 h, time 3 day) was 41.9%, the Lym (72 h, time 3 day) was 75.8% and the MCH (72 h, time 3 day) was 21.1 pg. For the same compound, the MCHC (72 h, time 3 day) was 32.7%, the MCV (72 h, time 3 day) was 64.6 fL and the Mono (72 h, time 3 day) was 3%. The Neu (72 h, time 3 day) was 19.6%, the PT (72 h, time 3 day) was 13.8 s and the Plat (72 h, time 3 day) was 131.2 x10_4/uL. It also gave an RBC (72 h, time 3 day) of 648.8 x10_4/ul, a Ret (72 h, time 3 day) of 7.1% and a WBC (72 h, time 3 day) of 113.2 x10_2/uL. The KIDNEY_L (72 h, time 3 day) was 0.9 g, the KIDNEY_R (72 h, time 3 day) was 0.9 g and the KIDNEY_TOTAL (72 h, time 3 day) was 1.9 g. The LIVER (72 h, time 3 day) was 11.2 g, the A/G (72 h, time 3 day) was 0.9 and the ALP (72 h, time 3 day) was 1527 IU/L. It also gave an ALT (72 h, time 3 day) of 43.4 IU/L, an AST (72 h, time 3 day) of 69 IU/L and a BUN (72 h, time 3 day) of 14.6 mg/dL. It also gave a CRE (72 h, time 3 day) of 0.2 mg/dL, a Ca (72 h, time 3 day) of 11.1 mg/dL and a Cl (72 h, time 3 day) of 106.2 meq/L. For the same compound, the DBIL (72 h, time 3 day) was 0.014 mg/dL, the GLC (72 h, time 3 day) was 177.8 mg/dL and the IP (72 h, time 3 day) was 6.8 mg/dL. The K (72 h, time 3 day) was 4.1 meq/L, the LDH (72 h, time 3 day) was 84.4 IU/L and the Na (72 h, time 3 day) was 144.2 meq/L. The PL (72 h, time 3 day) was 171.8 mg/dL, the RALB (72 h, time 3 day) was 2.8 g/dL and the TBIL (72 h, time 3 day) was 0.018 mg/dL. The TC (72 h, time 3 day) was 90.2 mg/dL, the TG (72 h, time 3 day) was 118.8 mg/dL and the TP (72 h, time 3 day) was 5.8 g/dL. The gamma-GTP (72 h, time 3 day) was 1 IU/L, the TERMINAL_BW ([…], time 7 day) was 275.3 g and the TERMINAL_BW ([…], time 14 day) was 335.9 g. For the same compound, the TERMINAL_BW ([…], time 28 day) was 405.5 g, the APTT ([…], time 7 day) was 17.9 s and the Bas ([…], time 7 day) was 0%. It also gave an Eos ([…], time 7 day) of 1%, a Fbg ([…], time 7 day) of 320.4 mg/dL and a Hb ([…], time 7 day) of 14.2 g/dL. It also gave a Ht ([…], time 7 day) of 43.2%, a Lym ([…], time 7 day) of 72.8% and an MCH ([…], time 7 day) of 21 pg. The MCHC ([…], time 7 day) was 32.8%, the MCV ([…], time 7 day) was 64.1 fL and the Mono ([…], time 7 day) was 2.8%. It also gave a Neu ([…], time 7 day) of 22.4%, a PT ([…], time 7 day) of 13.9 s and a Plat ([…], time 7 day) of 121.1 x10_4/uL. For the same compound, the RBC ([…], time 7 day) was 674.8 x10_4/ul, the Ret ([…], time 7 day) was 5.9% and the WBC ([…], time 7 day) was 98.3 x10_2/uL. It also gave an APTT ([…], time 14 day) of 19.2 s, a Bas ([…], time 14 day) of 0% and an Eos ([…], time 14 day) of 1.2%. It also gave a Fbg ([…], time 14 day) of 292.4 mg/dL, a Hb ([…], time 14 day) of 14.8 g/dL and a Ht ([…], time 14 day) of 43.7%. It also gave a Lym ([…], time 14 day) of 80.4%, an MCH ([…], time 14 day) of 20.4 pg and an MCHC ([…], time 14 day) of 33.9%. The MCV ([…], time 14 day) was 60.2 fL, the Mono ([…], time 14 day) was 2% and the Neu ([…], time 14 day) was 15.8%. It also gave a PT ([…], time 14 day) of 14.2 s, a Plat ([…], time 14 day) of 122.3 x10_4/uL and an RBC ([…], time 14 day) of 724.8 x10_4/ul. The Ret ([…], time 14 day) was 4.5%, the WBC ([…], time 14 day) was 90.4 x10_2/uL and the APTT ([…], time 28 day) was 18.4 s. It also gave a Bas ([…], time 28 day) of 0%, an Eos ([…], time 28 day) of 1.4% and a Fbg ([…], time 28 day) of 300.8 mg/dL. For the same compound, the Hb ([…], time 28 day) was 15.6 g/dL, the Ht ([…], time 28 day) was 45.4% and the Lym ([…], time 28 day) was 79.2%. For the same compound, the MCH ([…], time 28 day) was 19.8 pg, the MCHC ([…], time 28 day) was 34.2% and the MCV ([…], time 28 day) was 58 fL. It also gave a Mono ([…], time 28 day) of 2.2%, a Neu ([…], time 28 day) of 16.2% and a PT ([…], time 28 day) of 14.1 s. For the same compound, the Plat ([…], time 28 day) was 103.8 x10_4/uL, the RBC ([…], time 28 day) was 783.8 x10_4/ul and the Ret ([…], time 28 day) was 2.6%. For the same compound, the WBC ([…], time 28 day) was 93.7 x10_2/uL, the KIDNEY_L ([…], time 7 day) was 1.1 g and the KIDNEY_R ([…], time 7 day) was 1.1 g. It also gave a KIDNEY_TOTAL ([…], time 7 day) of 2.2 g, a KIDNEY_L ([…], time 14 day) of 1.3 g and a KIDNEY_R ([…], time 14 day) of 1.3 g. The KIDNEY_TOTAL ([…], time 14 day) was 2.6 g, the KIDNEY_L ([…], time 28 day) was 1.4 g and the KIDNEY_R ([…], time 28 day) was 1.4 g. For the same compound, the KIDNEY_TOTAL ([…], time 28 day) was 2.8 g, the LIVER ([…], time 7 day) was 13 g and the LIVER ([…], time 14 day) was 15.3 g. The LIVER ([…], time 28 day) was 16.3 g, the A/G ([…], time 7 day) was 0.9 and the ALP ([…], time 7 day) was 1428 IU/L. It also gave an ALT ([…], time 7 day) of 45.4 IU/L, an AST ([…], time 7 day) of 68.6 IU/L and a BUN ([…], time 7 day) of 15 mg/dL. The CRE ([…], time 7 day) was 0.2 mg/dL, the Ca ([…], time 7 day) was 10.9 mg/dL and the Cl ([…], time 7 day) was 105.2 meq/L. The DBIL ([…], time 7 day) was 0.018 mg/dL, the GLC ([…], time 7 day) was 189.8 mg/dL and the IP ([…], time 7 day) was 6.6 mg/dL. The K ([…], time 7 day) was 4 meq/L, the LDH ([…], time 7 day) was 71.6 IU/L and the Na ([…], time 7 day) was 142.2 meq/L. For the same compound, the PL ([…], time 7 day) was 159 mg/dL, the RALB ([…], time 7 day) was 2.8 g/dL and the TBIL ([…], time 7 day) was 0.028 mg/dL. The TC ([…], time 7 day) was 74.4 mg/dL, the TG ([…], time 7 day) was 131.2 mg/dL and the TP ([…], time 7 day) was 5.8 g/dL. For the same compound, the gamma-GTP ([…], time 7 day) was 0.8 IU/L, the A/G ([…], time 14 day) was 0.9 and the ALP ([…], time 14 day) was 1246.2 IU/L. It also gave an ALT ([…], time 14 day) of 41.4 IU/L, an AST ([…], time 14 day) of 68.2 IU/L and a BUN ([…], time 14 day) of 16.2 mg/dL. It also gave a CRE ([…], time 14 day) of 0.2 mg/dL, a Ca ([…], time 14 day) of 10.9 mg/dL and a Cl ([…], time 14 day) of 105.2 meq/L. It also gave a DBIL ([…], time 14 day) of 0.01 mg/dL, a GLC ([…], time 14 day) of 189 mg/dL and an IP ([…], time 14 day) of 6.2 mg/dL. It also gave a K ([…], time 14 day) of 4.2 meq/L, an LDH ([…], time 14 day) of 107.4 IU/L and a Na ([…], time 14 day) of 143 meq/L. For the same compound, the PL ([…], time 14 day) was 155.6 mg/dL, the RALB ([…], time 14 day) was 2.8 g/dL and the TBIL ([…], time 14 day) was 0.024 mg/dL. It also gave a TC ([…], time 14 day) of 71.4 mg/dL, a TG ([…], time 14 day) of 150.4 mg/dL and a TP ([…], time 14 day) of 6.1 g/dL. The gamma-GTP ([…], time 14 day) was 0.8 IU/L, the A/G ([…], time 28 day) was 0.9 and the ALP ([…], time 28 day) was 945.4 IU/L. The ALT ([…], time 28 day) was 29.6 IU/L, the AST ([…], time 28 day) was 58.4 IU/L and the BUN ([…], time 28 day) was 15.4 mg/dL. It also gave a CRE ([…], time 28 day) of 0.3 mg/dL, a Ca ([…], time 28 day) of 10.9 mg/dL and a Cl ([…], time 28 day) of 105.8 meq/L. For the same compound, the DBIL ([…], time 28 day) was 0.008 mg/dL, the GLC ([…], time 28 day) was 185 mg/dL and the IP ([…], time 28 day) was 6 mg/dL. It also gave a K ([…], time 28 day) of 3.6 meq/L, an LDH ([…], time 28 day) of 51.6 IU/L and a Na ([…], time 28 day) of 144 meq/L. It also gave a PL ([…], time 28 day) of 147.4 mg/dL, an RALB ([…], time 28 day) of 2.9 g/dL and a TBIL ([…], time 28 day) of 0.052 mg/dL. The TC ([…], time 28 day) was 67.6 mg/dL, the TG ([…], time 28 day) was 140.8 mg/dL and the TP ([…], time 28 day) was 6.3 g/dL. It also gave a gamma-GTP ([…], time 28 day) of 1.2 IU/L.
